# Data as given in patent US8697888B2, “Substituted (1-(methylsulfonyl)azetidin-3-yl)(heterocycloalkyl)methanone analogs as antagonists of muscarinic acetylcholine M1 receptors” (Vanderbilt University, priority 2012, dated 2014).
# Target: T1, mAChR M1 (UniProt P11229)
# T1 sequence (P11229 1-460): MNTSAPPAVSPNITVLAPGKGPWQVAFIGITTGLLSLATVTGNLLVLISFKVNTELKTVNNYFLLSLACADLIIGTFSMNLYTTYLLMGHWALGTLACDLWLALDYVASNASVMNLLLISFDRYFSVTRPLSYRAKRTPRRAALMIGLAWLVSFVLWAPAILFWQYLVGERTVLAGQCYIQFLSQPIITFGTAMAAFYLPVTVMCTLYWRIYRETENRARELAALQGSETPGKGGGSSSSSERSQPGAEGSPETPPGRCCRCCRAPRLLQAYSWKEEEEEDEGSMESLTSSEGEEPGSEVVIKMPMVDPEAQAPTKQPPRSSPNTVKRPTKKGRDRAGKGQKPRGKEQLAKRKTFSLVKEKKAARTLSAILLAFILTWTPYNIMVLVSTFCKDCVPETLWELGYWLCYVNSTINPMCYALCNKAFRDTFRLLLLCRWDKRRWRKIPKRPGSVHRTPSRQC
# Assay: mAChR M1 cell-based functional assay (calcium mobilization, antagonist mode)
# Details: for IC50: concentration of antagonist decreasing calcium flux by 50%, EC80 acetylcholine response, CHO-K1 cells expressing mAChR M1, read-out: Potency (IC50)
# From the text: Chinese hamster ovary (CHO-K1) cells stably expressing rat (r)M1 were purchased from the American Type Culture Collection and cultured according to their indicated protocol. CHO cells stably expressing human (h)M2, hM3, and hM5 were described previously (Levey, et al., 1991); hM1 and hM4 cDNAs were purchased from Missouri S&T cDNA Resource; rM4 cDNA was provided by T. I. Bonner (National Institutes of Health, Bethesda, Md.). rM2 and rM3 were cloned from a rat brain cDNA library and sequence verified. hM1, rM2, rM3, hM4, and rM4 cDNAs were used to stably transfect CHO-K1 cells purchased from the American Type Culture Collection using Lipofectamine-2000. To make stable rM2, hM2, rM3, hM4, and rM4 cell lines for use in calcium mobilization assays, these cells also were stably transfected with a chimeric G-protein (Gqi5) (provided by B. R. Conklin, University of California, San Francisco) using Lipofectamine 2000. rM1, hM1, rM3, hM3, rM5, and hM5 cells were grown in Ham's F-12 medium containing 10% heat-inactivated fetal bovine serum (FBS), 20 mM HEPES, and 50 μg/mL G418 sulfate. rM2-Gqi5, hM2-Gqi5, and hM4-Gqi5 cells were grown in the same medium also containing 500 μg/mL Hygromycin B. Stable rM4-Gqi5 cells were grown in DMEM containing 10% heat-inactivated FBS, 20 mM HEPES, 400 μg/mL G418 sulfate, and […].
# For high throughput measurement of antagonist inhibited increases in intracellular calcium, CHO-K1 cells stably expressing muscarinic receptors were plated in growth medium lacking G418 and hygromycin at 15,000 cells/20 μL/well in Greiner 384-well black-walled, tissue culture (TC)-treated, clear-bottom plates (VWR). Cells were incubated overnight at 37° C. and 5% CO2. The next day, cells were washed using an ELX 405 (BioTek) with four washes (80 μL) of assay buffer then aspirated to 20 μL. Next, 20 μL of 16 μM Fluo-4/acetoxymethyl ester (Invitrogen, Carlsbad, Calif.) prepared as a 2.3 mM stock in DMSO and mixed in a 1:1 ratio with 10% (w/v) Pluronic F-127 and diluted in assay buffer was added to the wells and the cell plates were incubated for 50 min at 37° C. and 5% CO2. Dye was removed by washing with the ELX 405 (four 80 μL washes of assay buffer) then aspirated to 20 μL. Compound master plates were formatted in an 11 point CRC format (1:3 dilutions) in 100% DMSO with a starting concentration of 10 mM using the BRAVO liquid handler (Agilent). Test compound CRCs were then transferred to daughter plates (240 nL) using the Echo acoustic plate reformatter (Labcyte, Sunnyvale, Calif.) and then diluted into assay buffer (40 μL) to a 2× stock using a Thermo Fisher Combi (Thermo Fisher Scientific, Waltham, Mass.).
# Calcium flux was measured using the Functional Drug Screening System (FDSS) 6000 (Hamamatsu Corporation, Tokyo, Japan) as an increase in the fluorescent static ratio. Compounds were applied to cells (20 μL, 2×) using the automated system of the FDSS 6000 at 4 s into the 300 s protocol and the data were collected at 1 Hz. At 144 s into the 300 s protocol, 10 μL of an EC20 concentration of the muscarinic receptor agonist acetylcholine was added (5×), followed by the addition of 12 μL an EC80 concentration of acetylcholine at the 230 s time point (5×). Agonist activity was analyzed as a concentration-dependent increase in calcium mobilization upon compound addition. Positive allosteric modulator activity was analyzed as a concentration-dependent increase in the EC20 acetylcholine response. Antagonist activity was analyzed as a concentration-dependent decrease in the EC80 acetylcholine response. Concentration-response curves were generated using a four-parameter logistical equation in XLfit curve fitting software (IDBS, Bridgewater, N.J.) for Excel (Microsoft, Redmond, Wash.) or Prism (GraphPad Software, Inc., San Diego, Calif.).
# The calcium mobilization assay was used to determine “potency”.
# [1] = activity remaining at top dose of 30 μM test compound, as percentage of the response to an approx. EC80 concentration of ACh
# [2] = dash = baseline or about zero remaining activity (table footnote)
SMILES,Remaining Activity (%) [1],IC50,Remaining Activity (%) [2]
CC(C)(C)CS(=O)(=O)N1CC(C(=O)N2CCN(c3ccncc3)CC2)C1 [B43],43%,> 10 µM,
Cc1cc(S(=O)(=O)N2CC(C(=O)N3CCN(c4ccncc4)CC3)C2)cnc1Cl [B7],,,"— (Unless otherwise indicated with a numerical value, the percent remaining activity is baseline or about zero, i.e. as indicated by “—”)"
O=C(C1CN(S(=O)(=O)c2cccc3c(Cl)nc(Cl)cc23)C1)N1CCN(c2ccncc2)CC1 [B30],,,"— (Unless otherwise indicated with a numerical value, the percent remaining activity is baseline or about zero, i.e. as indicated by “—”)"
O=C(C1CN(S(=O)(=O)c2cccc(OC(F)(F)F)c2)C1)N1CCN(c2ccncc2)CC1 [B69],≧80%,> 10 µM,
Cn1ccnc1N1CCN(C(=O)C2CN(S(=O)(=O)c3cccc4nonc34)C2)CC1 [B62],≧80%,> 10 µM,
O=C(C1CN(S(=O)(=O)c2cccc3cnccc23)C1)N1CC2CN(c3ccncc3)CC2C1 (centres unmarked) [B3],,0.057 µM,"— (Unless otherwise indicated with a numerical value, the percent remaining activity is baseline or about zero, i.e. as indicated by “—”)"
CN1CCN(C(=O)C2CN(S(=O)(=O)c3cccc4cnccc34)C2)CC1 [B80],≧80%,> 10 µM,
Cc1cc(N2CCN(C(=O)C3CN(S(=O)(=O)c4cccc5cnccc45)C3)CC2)ccn1 [B6],,0.12 µM,"— (Unless otherwise indicated with a numerical value, the percent remaining activity is baseline or about zero, i.e. as indicated by “—”)"
Cc1noc(C)c1S(=O)(=O)N1CC(C(=O)N2CCN(c3ccncc3)CC2)C1 [B25],,1.9 µM,"— (Unless otherwise indicated with a numerical value, the percent remaining activity is baseline or about zero, i.e. as indicated by “—”)"
O=C(C1CN(S(=O)(=O)c2cccc3nonc23)C1)N1CCCN(c2ccncc2)CC1 [B32],34%,> 10 µM,
O=C(C1CN(S(=O)(=O)c2cccc3cnc(Cl)cc23)C1)N1CCN(c2ccncc2)CC1 [B19],,0.78 µM,"— (Unless otherwise indicated with a numerical value, the percent remaining activity is baseline or about zero, i.e. as indicated by “—”)"
O=C(C1CN(S(=O)(=O)c2cccc3nsnc23)C1)N1CCN(c2ccncc2)CC1 [B28],,2.2 µM,"— (Unless otherwise indicated with a numerical value, the percent remaining activity is baseline or about zero, i.e. as indicated by “—”)"
O=C(C1CN(S(=O)(=O)c2cccc3c2OCCO3)C1)N1CCN(c2ccncc2)CC1 [B45],27%,> 10 µM,
O=C(C1CN(S(=O)(=O)c2cccc(F)c2)C1)N1CC2CN(c3ccncc3)CC2C1 (centres unmarked) [B59],,2.1 µM,"— (Unless otherwise indicated with a numerical value, the percent remaining activity is baseline or about zero, i.e. as indicated by “—”)"
O=C(C1CN(S(=O)(=O)c2ccc3cn[nH]c3c2)C1)N1CCN(c2ccncc2)CC1 [B37],26%,> 10 µM,
O=C(C1CN(S(=O)(=O)c2cccc3c(Cl)nccc23)C1)N1CCN(c2ccncc2)CC1 [B17],,0.64 µM,"— (Unless otherwise indicated with a numerical value, the percent remaining activity is baseline or about zero, i.e. as indicated by “—”)"
O=C(C1CN(S(=O)(=O)c2ccc3[nH]ncc3c2)C1)N1CCN(c2ccncc2)CC1 [B76],≧80%,> 10 µM,
O=C(C1CN(S(=O)(=O)c2cccc(F)c2)C1)N1CCN(c2ccncc2)CC1 [B23],,1.5 µM,"— (Unless otherwise indicated with a numerical value, the percent remaining activity is baseline or about zero, i.e. as indicated by “—”)"
O=C1CCc2cc(S(=O)(=O)N3CC(C(=O)N4CCN(c5ccncc5)CC4)C3)ccc2N1 [B79],≧80%,> 10 µM,
O=C(NC1CCN(c2ccccc2)C1)C1CN(S(=O)(=O)c2cccc3cnccc23)C1 (centres unmarked) [B82],≧80%,> 10 µM,
Cc1nc(-c2cccc(S(=O)(=O)N3CC(C(=O)N4CCN(c5ccncc5)CC4)C3)c2)no1 [B71],≧80%,> 10 µM,
Cc1cc2c(S(=O)(=O)N3CC(C(=O)N4CCN(c5ccncc5)CC4)C3)cccc2cn1 [B22],,,"— (Unless otherwise indicated with a numerical value, the percent remaining activity is baseline or about zero, i.e. as indicated by “—”)"
O=C(C1CN(S(=O)(=O)C2CCCCC2)C1)N1CCN(c2ccncc2)CC1 [B47],50%,> 10 µM,
O=C(C1CN(S(=O)(=O)c2cccc(Cl)c2Cl)C1)N1CCN(c2ccncc2)CC1 [B16],,0.62 µM,"— (Unless otherwise indicated with a numerical value, the percent remaining activity is baseline or about zero, i.e. as indicated by “—”)"
O=C(C1CN(S(=O)(=O)c2ccc(Cl)nc2)C1)N1CCN(c2ccncc2)CC1 [B12],,0.35 µM,"— (Unless otherwise indicated with a numerical value, the percent remaining activity is baseline or about zero, i.e. as indicated by “—”)"
O=C(C1CN(S(=O)(=O)c2cccnc2)C1)N1CCN(c2ccncc2)CC1 [B10],,0.35 µM,"— (Unless otherwise indicated with a numerical value, the percent remaining activity is baseline or about zero, i.e. as indicated by “—”)"
O=C(C1CN(S(=O)(=O)c2cccc3nsnc23)C1)N1CC2CN(c3ccncc3)CC2C1 (centres unmarked) [B53],,,"— (Unless otherwise indicated with a numerical value, the percent remaining activity is baseline or about zero, i.e. as indicated by “—”)"
Cn1ccc(-c2ccccc2S(=O)(=O)N2CC(C(=O)N3CCN(c4ccncc4)CC3)C2)n1 [B64],≧80%,> 10 µM,
O=C(C1CN(S(=O)(=O)c2cccc(Cl)c2F)C1)N1CCN(c2ccncc2)CC1 [B34],11%,,
